# In US10858322B2, “Process for preparing 1-isobutyryl-1′-((1-(4,4,4-trifluorobutyl)-4,5,6,7-tetrahydro-1H-benzo[D]imidazol-2-yl)methyl)spiro[azetidine-3,3′-indolin]-2′-one” (SHANDONG DANHONG PHARMACEUTICAL CO., LTD., priority 2015, dated 2020):
# How the values were obtained:
# [1] = test system: RSV respiratory syncytial virus (Along strain); assay: microbe, parasite or virus in culture; format: cell-based
# Description: And then sucked it into a 37° C., 5% CO2 incubator to digest.
# 3) Each T150 was suspended in 10 to 15 mL culture medium, 0.1 mL was taken and then diluted twice with trypan blue solution.
# 2) CCK-8 (Dojindo-CK04-20, 6 μL/well) was added to 384 well plates with Multidrop® automatic dispenser.
# 4) The data were analyzed.
# [2] = RSV long CPE assay, CC50 (in vitro toxicity); format: cell-based; settings: human; Hep2 cells, 5 days, CCK-8 readout, n = 7
# Description: (§1) RSV long CPE assay Experimental Purpose: The EC50 and CC50 values of anti-RSV respiratory syncytial virus compounds were detected by cytopathology. Experimental Materials: Cell Line: Hep2 Experimental Procedures and Methods: a) Cell Inoculation (Hep2 cell) 1) The cell culture medium was removed and washed with 10 mL of PBS; 2) The preheated trypsin was added to the cleaned culture flask and rotating the flask to allow the trypsin to uniformly cover the culture flask. And then sucked it into a 37° C., 5% CO2 incubator to digest. 3) Each T150 was suspended in 10 to 15 mL culture medium, 0.1 mL was taken and then diluted twice with trypan blue solution. […] The cells were centrifuged (300 rpm) and the cells were adhered to the wall and placed in a 37° C., 5% CO2 incubator overnight. b) Compound addition: 1) The compound dissolved in 100% DMSO was diluted in a half logarithm and added to the cell plate using an Echo liquid handler. To ensure that the final concentration of DMSO was 1%; [table] […] 2) CCK-8 (Dojindo-CK04-20, 6 μL/well) was added to 384 well plates with Multidrop® automatic dispenser. […] 4) The data were analyzed.
# Hep2 cells = assay: RSV long CPE assay, CC50 (in vitro toxicity); format: cell-based; settings: conclusion from the CPE assay CC50
# Description: as §1
# [3] = Stability experiment of crystal form A in different solvents (XRPD); format: physicochemical; settings: 2 days
# Description: The X-Ray Powder Diffraction method is as follows:
# Instrument: Bruker D8 ADVANCE X-Ray diffractometer; Target: Cu: K-Alpha; Wavelength λ=1.54179 Å; Tube Voltage: 40 kV; Tube Current: 40 mA; Scanning scope: 4-40°; Sample Rotation speed: 15 rpm; Scanning speed: 10°/min.
# The mixture was stirred at 40° C. If the compound was completely dissolved, the sample was allowed to cool to room temperature, and if the solid was precipitated, the mixture was continued to stir; and if the sample remained in solution, the solvent was naturally evaporated to remove. After all the suspensions were stirred for 2 days, the solids in all samples were collected and XRPD was used to detect the crystal form state.
# [4] = Solid physical stability of crystal form A under different temperature and humidity conditions; format: physicochemical; settings: 10th day
# Description: The X-Ray Powder Diffraction method is as follows: Instrument: Bruker D8 ADVANCE X-Ray diffractometer; Target: Cu: K-Alpha; Wavelength λ=1.54179 Å; Tube Voltage: 40 kV; Tube Current: 40 mA; Scanning scope: 4-40°; Sample Rotation speed: 15 rpm; Scanning speed: 10°/min. […] On the tenth day, all samples were removed and returned to room temperature. The appearance changes of samples were observed, and the crystal form of samples was detected by XRPD.
# [5] = Approximate solubility test of crystal form A; format: physicochemical; settings: thermodynamic from solid, room temperature (20 to 30° C.)
# [6] = 0 day (−20° C. Sealed Storage) (Control Sample)
# [7] = 25° C./92.5% Relative Humidity (Open)
# [8] = 60° C./75% Relative Humidity (Open)
smiles,measurement,setting,value
"CC(C)C(=O)N1CC2(C1)C(=O)N(Cc1nc3c(n1CCCC(F)(F)F)CCCC3)c1ccccc12 [Compound of formula (I), 1-Isobutyryl-1′-((1-(4,4,4-trifluorobutyl)-4,5,6,7-tetrahydro-1H-benzo[d]imidazol-2-yl)methyl)spiro[azetidine-3,3′-indolin]-2′-one]",activity in vitro compared with BMS433771,[1]; conclusion from the CPE assay,better activity in vitro
same,EC50,"[1]; human respiratory syncytial virus, HEp-2, 120 h, Hep2 cells, RSV A long strain, 5 days, CCK-8 readout, n = 7, read-out: CPE assay EC50",7 nM
same,CC50 at 5 days,[2],> 100 µM
same,cytotoxicity,Hep2 cells,no cytotoxicity
"CC(C)C(=O)N1CC2(C1)C(=O)N(Cc1nc3c(n1CCCC(F)(F)F)CCCC3)c1ccccc12 [Crystal Form A, 1-Isobutyryl-1′-((1-(4,4,4-trifluorobutyl)-4,5,6,7-tetrahydro-1H-benzo[d]imidazol-2-yl)methyl)spiro[azetidine-3,3′-indolin]-2′-one]",Result (crystal form by XRPD),"[3]; 2-Methyltetrahydrofuran, stirred at 40° C.",Crystal Form A
same,Result (crystal form by XRPD),"[3]; Acetone, stirred at 40° C.",Crystal Form A
same,Result (crystal form by XRPD),"[3]; Acetone:water = 1:2, stirred at 40° C.",Crystal Form B
same,Result (crystal form by XRPD),"[3]; Dioxane, stirred at 40° C.",Crystal Form A
same,Result (crystal form by XRPD),"[3]; Ethanol, stirred at 40° C.",Crystal Form A
same,Result (crystal form by XRPD),"[3]; Ethanol:water = 3:1, stirred at 40° C.",Crystal Form B
same,Result (crystal form by XRPD),"[3]; Ethyl acetate, stirred at 40° C.",Crystal Form A
same,Result (crystal form by XRPD),"[3]; Methanol:water = 3:1, stirred at 40° C.",Crystal Form A
same,Result (crystal form by XRPD),"[3]; Toluene, stirred at 40° C.",Crystal Form A
same,Character,[4]; [6],White Powder
same,Crystal Form,[4]; [6],Crystal Form A
same,Character,[4]; [7],White Powder
same,Crystal Form,[4]; [7],Crystal Form A
same,Character,[4]; 60° C. (Open),White Powder
same,Crystal Form,[4]; 60° C. (Open),Crystal Form A
same,Character,[4]; [8],White Powder
same,Crystal Form,[4]; [8],Crystal Form A
same,solubility,"[5]; acetone-water (1:2), aqueous with cosolvent or surfactant or cyclodextrin, Acetone-H2O (1:2)",< 2 mg/mL
same,solubility,"[5]; acetonitrile-water (1:1), aqueous with cosolvent or surfactant or cyclodextrin, Acetonitrile-H2O (1:1)",46 to 58 mg/mL
same,solubility,"[5]; ethanol-water (1:1), aqueous with cosolvent or surfactant or cyclodextrin, Ethanol-H2O (1:1)",2 to 2.7 mg/mL
same,solubility,"[5]; ethanol-water (3:1), aqueous with cosolvent or surfactant or cyclodextrin, Ethanol-H2O (3:1)",22 to 24.5 mg/mL
same,solubility,"[5]; isopropanol-water (1:1), aqueous with cosolvent or surfactant or cyclodextrin, Isopropanol-H2O (1:1)",2.5 to 3 mg/mL
same,solubility,"[5]; methanol-water (1:1), aqueous with cosolvent or surfactant or cyclodextrin, Methanol-H2O (1:1)",< 2 mg/mL
same,solubility,"[5]; methanol-water (3:1), aqueous with cosolvent or surfactant or cyclodextrin, Methanol-H2O (3:1)",45 to 56.5 mg/mL
same,solubility,"[5]; organic solvent or mixture, 2-Butanone",56.9 to 75.8 mg/mL
same,solubility,"[5]; organic solvent or mixture, 2-Methyltetrahydrofuran",45 to 56.7 mg/mL
same,solubility,"[5]; organic solvent or mixture, Acetone",45.9 to 57.4 mg/mL
same,solubility,"[5]; organic solvent or mixture, Acetonitrile",42 to 53.6 mg/mL
same,solubility,"[5]; organic solvent or mixture, Cyclohexane",< 2 mg/mL
same,solubility,"[5]; organic solvent or mixture, Dioxane",45 to 56.5 mg/mL
same,solubility,"[5]; organic solvent or mixture, Ethanol",42 to 52.5 mg/mL
same,solubility,"[5]; organic solvent or mixture, Ethyl acetate",29 to 34 mg/mL
same,solubility,"[5]; organic solvent or mixture, Isopropanol",13.9 to 20.9 mg/mL
same,solubility,"[5]; organic solvent or mixture, Isopropyl acetate",18 to 20.5 mg/mL
same,solubility,"[5]; organic solvent or mixture, Methanol",115 to 231 mg/mL
same,solubility,"[5]; organic solvent or mixture, Methyl isobutyl ketone",22.9 to 25.5 mg/mL
same,solubility,"[5]; organic solvent or mixture, Methyl tert-butyl ether",3 to 3.7 mg/mL
same,solubility,"[5]; organic solvent or mixture, Tetrahydrofuran",113 to 226 mg/mL
same,solubility,"[5]; organic solvent or mixture, Toluene",28 to 32.5 mg/mL
same,solubility,"[5]; organic solvent or mixture, n-Butyl alcohol",25.9 to 29.5 mg/mL
same,solubility,"[5]; organic solvent or mixture, n-Heptane",< 2 mg/mL
same,solubility,"[5]; water, H2O",< 2 mg/mL
